Measurements reported in US10406243B2, “Methods of treatment comprising a polyrotaxane and medicinal composition” (National University Corporation Tokyo Medical and Dental …, priority 2013, dated 2019).

Tests used:
[1] = tested on: Npc1-deficient mice (Npc1−/− mice); details: cited from earlier work
[2] = tested on: NPC1 cells (human dermal fibroblasts derived from a Niemann-Pick type C disease patient); assay: Quantification of intracellular cholesterol accumulation, Amplex Red Cholesterol Assay Kit (Test Example 2); format: cell-based; details: equivalent to 100 μM of cyclodextrin, 24 hours
Method: The quantification of the amount of intracellular cholesterol accumulation was carried out as follows.
After the incubation the cells were lysed with cell lysis buffer to obtain cell lysates, and the intracellular cholesterol was determined by Amplex Red Cholesterol Assay Kit (Invitrogen) while the total cellular protein content was determined with Micro BCA Protein Assay Kit (Thermo Fisher Scientific). The total intracellular cholesterol content is shown as total cholesterol content (nmol)/total protein content (mg).
In FIG. 9, in order from the left, the results on the following are shown: “the case where NPC1 cells were used and none of the samples were added (non-treated)”, “the case where NPC1 cells were used and HP-β-CD was added as a sample (HP-β-CD added)”, “the case where NPC1 cells were used and DM-β-CD was added as a sample (DM-β-CD added)”, “the case where NPC1 cells were used and HE-SS-PRX was added as a sample (HE-SS-PRX added)”, “the case where NPC1 cells were used and HE-ace-PRX was added as a sample (HE-ace-PRX added)”, “the case where NPC1 cells were used and HE-PRX was added as a sample (HE-PRX added)”, and “the case where NPC1 cells were used and HE-SS-PRX was added as a sample (HE-SS-PRX added)”, and “the case where NHDF cells were used and none of the samples were added (non-treated)”. The amount added of each sample is equivalent to 100 μM of cyclodextrin.

[3] = tested on: NPC1 cells; assay: LC3 and p62 expressions by Western blotting (Test Example 9); format: cell-based, human
Method: The expressions of LC3 and p62 in the following cells were assayed by Western blotting as follows.
(§1) The cells were seeded on a 12-well plate (Nunc) (cell count: 1×10^5 cells/well), and incubated at 37° C. under a 5% CO2 atmosphere for one day, followed by the addition of the following samples and another 24-hour incubation.
(§2) After the culturing, the cells were washed with PBS, and then 150 μL of RIPA buffer (Wako) containing 1% protease inhibitor cocktail (Nacalai Tesque) and 1% Phosphatase inhibitor cocktail (Nacalai Tesque) was added, and the cells were lysed by shaking for 30 minutes. The cell lysate was centrifuged for 10 minutes at 15,000 rpm, and the supernatant was collected.
(§3) 10 μL of the supernatant and 2.5 μL of Laemmli buffer (Bio-Rad) were mixed, and applied to a 12% acrylamide gel. Then, electrophoresis was performed at 150∇ for 45 minutes. Then, proteins were transferred to a polyvinylidene fluoride (PVDF) membrane (Bio-Rad) using trans-blot Turbo Blotting System (Bio-Rad). Then, blocking was carried out with 5% skim milk solution (Wako) for an hour.
After the blocking treatment, PVDF membranes were treated at 4° C. for one day with an antibody against LC3 which is an indicator of autophagy (purchased from MBL), an antibody against p62/SQSTM1 which is a selective autophagy substrate (purchased from MBL), and an anti-β-actin antibody (Sigma-Aldrich), each diluted with 1% skim milk solution.
After three washes with PBS, the PVDF membranes were treated for 1 hour at room temperature with HRP-conjugated goat anti-rabbit IgG diluted in 1% skim milk solution.
After three washes with PBS, the PVDF membranes were treated with Pierce Western Blotting Substrate, and the images were taken with ImageQuant LAS 500 system (GE Healthcare Bioscience).
For comparison, the following cases were also examined in a similar manner: a case where NHDF cells were used and none of the samples were added; a case where NHDF cells were used and Bafilomycin A1 (hereinafter, referred to as “Baf A”) was added instead of the sample; a case where NPC1 cells were used and none of the samples were added; and a case where NPC1 cells were used and Baf A was added instead of the sample.
(§4) Each of the relative expression levels was determined from the intensity of Western blot band. […]

[4] = tested on: NPC disease patient-derived NPC2 mutant dermal fibroblasts; assay: LC3-II expression by Western blotting (Test Example 9); format: cell-based, human; details: NPC2-mutated fibroblasts; HP-β-CD 10 mM, HEE-SS-PRX 1 mM
Method: (3) NPC disease patient-derived NPC2 mutant dermal fibroblasts (obtained from Coriell Institute; number: GM18455)
as §1, §2
as §3, with “hour. […]” for “hour.”
as §4

[5] = tested on: NPC1 cells; assay: Observation of autophagosomes by LC3 immunostaining (Test Example 8); format: cell-based, human; details: 24 hours, HP-β-CD 10 mM, HEE-SS-PRX equivalent to 1 mM β-CD
Method: NPC1 cells were seeded on a 35 mm glass bottom dish (IWAKI) (cell count: 1.5×10^4 cells/dish), and incubated at 37° C. under a 5% CO2 atmosphere for one day, followed by the addition of the following samples and another 24-hour incubation.
After the culturing, the cells were fixed with 4% paraformaldehyde (Wako) for 10 minutes, treated with 50 μg/ml digitonin solution (Tokyo Chemical Industry) for 5 minutes to permeabilize the plasma membrane, and blocked with 1% BSA/PBS solution for 30 minutes.
The cells were then treated with Rabbit polyclonal anti-LC3 antibody (MBL) diluted to 1:200 with 1% BSA for one day at 4° C. After washing with PBS, the cells were stained with Alexa Fluor 488-conjugated goat anti-rabbit IgG (Abeam) (diluted to 1:1,000 with 1% BSA solution) for 30 minutes. After washing with PBS, the cells were observed by FluoView FV-10i (Olympus).
In FIG. 16E, in order from the left, the results on the following are shown: “the case where NHDF cells were used and none of the samples were added”, “the case where NPC1 cells were used and HP-β-CD was added as a sample (amount added: 10 mM)”, “the case where NPC1 cells were used and […] was added as a sample (amount added: amount equivalent to 1 mM concentration of β-CD on HEE-SS-PRX)”.

[6] = tested on: NPC1 cells; assay: Fusion of autophagosomes and lysosomes, co-localization of mRFP-LC3 and LAMP1 (Test Example 11); format: cell-based, human; details: 24 hours, HP-β-CD 10 mM, HEE-SS-PRX equivalent to 1 mM cyclodextrin
[7] = tested on: NPC disease patient-derived cells; details: cited from earlier work
[8] = tested on: NPC1 cells; assay: Observation of autolysosome formation, mRFP-EGFP-LC3 (Test Example 10); format: cell-based, human; details: 24 hours, HP-β-CD 10 mM, HEE-SS-PRX equivalent to 1 mM cyclodextrin
[9] = tested on: NPC1 cells; assay: Cholesterol removal effect, dose-response (Test Examples 5, 6, 7-1); format: cell-based, human; details: 24 hours, concentration as cyclodextrin
Method: Then, the cells were washed twice with phosphate-buffered solution, and 0.25% trypsin-EDTA solution (Gibco) was added to each well to peel the cells. The cells were collected into a 1.5 mL tube, and washed twice with phosphate buffered saline. Then, cell lysis solution (including 50 mM phosphate buffer solution, 500 mM sodium chloride, 25 mM cholic acid, and 0.5% Triton X-100) was added to each tube to lyse the cells.
In each cell lysate, the total cholesterol was quantified by Amplex Red Cholesterol Assay Kit (Invitrogen), and the total protein was quantified by micro BCA Protein Assay Kit (Thermo Fisher Scientific). The total cellular cholesterol content is shown as total cholesterol content (nmol)/total protein content (mg).
Similar assays to Test Example 5 were performed except that the following samples were used in order to investigate how the type of degradable linkage in polyrotaxane influences to cholesterol removal from NPC1.
Similar assays to Test Example 5 were performed except that the following samples were used in order to investigate how the type of functional group introduced into cyclodextrins in polyrotaxane influences to cholesterol removal from NPC1.

[10] = tested on: GM1 gangliosidosis patient-derived dermal fibroblasts; assay: LC3-II expression by Western blotting (Test Example 9); format: cell-based, human; details: HP-β-CD 10 mM, HEE-SS-PRX 1 mM
Method: (5) GM1 gangliosidosis patient-derived dermal fibroblasts (obtained from Coriell Institute; number: GM03589)
as §1, §2
as §3, with “hour. […]” for “hour.”
as §4

[11] = tested on: Fabry disease patient-derived dermal fibroblasts; assay: as above; format: cell-based, human; details: HP-β-CD 10 mM, HEE-SS-PRX 1 mM
Method: (4) Fabry disease patient-derived dermal fibroblasts (obtained from Coriell Institute; number: GM00107)
as §1, §2
as §3, with “hour. […]” for “hour.”
as §4

[12] = tested on: NPC1 cells (human dermal fibroblasts derived from a Niemann-Pick type C disease patient); assay: Accumulation of cholesterol, filipin staining observed by confocal microscope (Test Example 2); format: cell-based; details: equivalent to 100 μM of cyclodextrin, 24 hours
Method: Normal human dermal fibroblasts (hereinafter, referred to as “NHDF” or “NHDF cells”; obtained from Coriell Institute; number: GM05659) and human dermal fibroblasts derived from a Niemann-Pick type C disease patient (hereinafter, referred to as “NPC1” or “NPC1 cells”; obtained from Coriell Institute; number: GM03123) were used as follows to examine the cellular accumulation of cholesterol.
After the incubation, the cells were fixed with 4% paraformaldehyde, and following the addition of filipin (Polysciences) in PBS adjusted to 100 μg/mL, were allowed to stand for 45 minutes at room temperature. After washing the cells three times with PBS, the localization of cholesterol was observed by using a confocal laser scanning microscope, FluoView FV10i (Olympus). Moreover, the amount of intracellular cholesterol accumulation was determined.
In each image, the part shown in white indicates cholesterol. The amount added of each sample is equivalent to 100 μM of cyclodextrin.

[13] = NHDF or NPC1 cells, Baf A added instead of the sample

Compound | Amount of cholesterol accumulated in each tissue [1] | Survival [1] | Amount of intracellular cholesterol accumulation (total cholesterol/total protein) [2] | Expression level of p62 ([3]; NPC1 cells, 24 hours, 10 mM) | Expression level of LC3-II ([3]; NPC1 cells, 24 hours, HP-β-CD 0.1 to 10 mM, HEE-SS-PRX 0.01 to 1 mM) | LC3-II level [4] | Number of LC3-positive vesicles in a cell [5] | Co-localization rate of mRFP-LC3 and LAMP1 [6] | Amount of cholesterol in cells [7] | Number of autolysosomes [8] | Number of autophagosomes [8] | Half maximal effective concentration (ED50) from dose-response curve for cholesterol accumulation [9] [µM] | LC3-II level [10] | LC3-II level [11] | LC3 level [3, 13] | p62 level [3, 13] | Filipin fluorescence intensity (intracellular cholesterol) [12]
Hydroxypropyl β-cyclodextrin [HP-β-CD] | decreases the amount of cholesterol accumulated in each tissue | extends the survival | subtle reduction of cholesterol | significantly increased | increased the expression of LC3-II in a concentration dependent manner | increase in LC3-II | further increased counts of LC3-positive vesicles | low | the amount of cholesterol in cells decreases | no change in the number of autolysosomes | increase in the number of autophagosomes | 2590 | increase in LC3-II | increase in LC3-II |  |  | 
CO/C1=C\C(C)=C\[C@@H](C)[C@@H](O)[C@@H](C)C/C(C)=C/C=C/[C@H](OC)[C@@H]([C@@H](C)[C@@H](O)[C@H](C)[C@@]2(O)C[C@@H](O)[C@H](C)[C@@H](C(C)C)O2)OC1=O [Baf A, Bafilomycin A1] |  |  |  |  |  |  |  |  |  |  |  |  |  |  | significant increases | significant increases | 
COC[C@H]1O[C@@H]2O[C@H]3[C@H](O)[C@@H](OC)[C@@H](O[C@H]4[C@H](O)[C@@H](OC)[C@@H](O[C@H]5[C@H](O)[C@@H](OC)[C@@H](O[C@H]6[C@H](O)[C@@H](OC)[C@@H](O[C@H]7[C@H](O)[C@@H](OC)[C@@H](O[C@H]8[C@H](O)[C@@H](OC)[C@@H](O[C@H]1[C@H](O)[C@H]2OC)O[C@@H]8COC)O[C@@H]7COC)O[C@@H]6COC)O[C@@H]5COC)O[C@@H]4COC)O[C@@H]3COC [DM-β-CD, 2,6-dimethyl-β-cyclodextrin] |  |  | capable of removing more cholesterol than HP-β-CD |  |  |  |  |  |  |  |  | 230 |  |  |  |  | reduced
